Source: EP1082099B1, “SURFACTANT FOR USE IN EXTERNAL PREPARATIONS FOR SKIN AND EXTERNAL PREPARATION FOR SKIN CONTAINING THE SAME” (Showa Denko K K, priority 1998, dated 1999)

Tests used:
[1] = Skin penetration test of methylparaben through hairless mouse skin (two-chamber); assay type: in vitro ADME; conditions: Example 2; donor side phosphate buffer pH 7 with stated composition; after 5 hours
Experimental: One (donor side) of two chambers separated by a hairless mouse skin was filled with a phosphate buffer (pH 7) having dissolved therein a substance having the composition described in Table 3 and the other (receiver side) was filled with a phosphate buffer solution (pH 7). After 5 hours, the concentration of methylparaben on the receiver side was measured. […] As will be apparent from the results, surfactin suppressed the skin penetration of skin-irritating substances.
(§1) One (donor side) of two chambers separated by a hairless mouse skin was filled with a cosmetic having the composition described in Table 6 and the other (receiver side) was filled with a phosphate buffer solution (pH 7). After 5 hours, the concentration of methylparaben on the receiver side was measured.
as §1, with “14” for “6”

[2] = system: three-dimensional skin model; test: Skin irritation test: MTT cytotoxicity on three-dimensional cultured skin model; assay type: cell-based; conditions: test substance in PBS pH 7, 1 hour exposure, 16 hours incubation, read from graph
Experimental: Using a three-dimensional skin model (trade name: Three-dimensional cultured skin model, manufactured by Gunze), skin irritation tests were performed. […] The test substances were adjusted with PBS (Phosphate Buffer Saline, pH 7) so that they were in various concentrations. To the thus-adjusted test substances was exposed the skin model for 1 hour. Thereafter, the test substances were washed and incubated for 16 hours in a medium attached to the above-described three-dimensional skin model. After the incubation, a solution of MTT (3-(4,5-dimethylthiazol-2-yl)-2,5-diphenyltetrazolium bromide) was added and pigments were extracted with isopropanol rendered acidic with hydrochloric acid, followed by measurement of absorbance at a wavelength of 570 nm. […] This value was called B. The MTT solution was added to PBS and extraction was performed similarly. Absorbance of the extract measured at a wavelength of 570 nm was named C. From these values was calculated cytotoxicity. Calculation was made according to the following equation. Cytotoxicity (%) = (1-(A-c)/(B-C)) x 100 [formula]
Plotting the concentration of a test substance on the axis of abscissa and cytotoxicity on the axis of ordinate, a graph was obtained, from which the concentration of a test compound at 50% cytotoxicity was read.

Row | Compound | Concentration of methylparaben of receiver [1] [ppm] | Concentration of surfactant at 50% cytotoxicity [2] [%]
1 | COC(=O)c1ccc(O)cc1 [0.1% Methylparaben, Methylparaben] | 5.7 | –
2 | CCCCCCCCCCCCOS(=O)(=O)[O-].[Na+] [SDS, sodium dodecylsulfate, reference compound] | – | 0.2
